From patent publication US10428083B2, “Heterocyclylmethyl-thienouracile as antagonists of the adenosine-A2B-receptor” (BAYER PHARMA AKTIENGESELLSCHAFT, priority 2015, dated 2019)

How the values were obtained:
[1] = target: human adenosine A2b receptor (Homo sapiens (Human), UniProt P29275); test: Cellular in vitro reporter gene test for A2b receptor activity (CHO-K1, CRE-luciferase, NECA stimulation); assay type: cell-based; conditions: recombinant CHO-K1 cell line, CRE-luciferase reporter, antagonism of EC50 concentration of NECA; in some cases means of several determinations, rounded to two significant figures; read-out: A2b receptor IC50
Chain of human adenosine A2b receptor (P29275 whole entry): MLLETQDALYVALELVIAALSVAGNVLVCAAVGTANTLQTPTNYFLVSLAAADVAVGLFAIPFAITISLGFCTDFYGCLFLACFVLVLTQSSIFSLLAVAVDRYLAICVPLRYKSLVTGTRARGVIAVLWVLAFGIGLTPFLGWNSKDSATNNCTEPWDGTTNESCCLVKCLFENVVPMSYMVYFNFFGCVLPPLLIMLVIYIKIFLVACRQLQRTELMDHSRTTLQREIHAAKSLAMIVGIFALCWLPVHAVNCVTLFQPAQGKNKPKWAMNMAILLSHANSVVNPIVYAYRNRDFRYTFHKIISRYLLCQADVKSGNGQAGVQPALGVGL
Procedure, shortened: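 CHO-K1 cells with CRE-driven luciferase; antagonists co-incubated with NECA at its EC50, determined in a pre-experiment on each test day. Luciferase read by luminescence 3 h after NECA addition.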

[2] = test system: IL-6 release by human fibroblast cell line LL29; test: NECA-induced IL-6 release by LL29 fibroblasts (ELISA); assay type: cell-based; conditions: LL29 cells, NECA 10 μM, 24 hours incubation, IL-6 in supernatant by ELISA
Method: B-3. Measurement of NECA-Induced IL-6 Release by LL29 Fibroblasts
Stimulation of fibroblasts with adenosine or the adenosine analog 5′-N-ethylcarboxamidoadenosine (NECA) leads to release of the pro-inflammatory and pro-fibrotic cytokine IL-6 which can be prevented by inhibition of the A2b receptor.
Accordingly, confluent cells of the human fibroblast cell line LL29 were treated with the test substances and stimulated with NECA (10 μM). After an incubation time of 24 hours, the cell supernatant is removed and human IL-6 in the cell supernatant is determined by ELISA (Quantikine® IL6 ELISA, R&D Systems, Minneapolis, USA).
Table 3 below lists the IC50 values obtained in this way for inhibition of IL-6 release for some working examples: […]

[3] = test system: bladder tumours and breast tumours; conditions: bladder and breast tumour animal models; cited from earlier work
[4] = test system: human pulmonary arterial endothelial and smooth muscle cells; conditions: stimulation with adenosine analogue; cited from earlier work
human fibroblasts = conditions: stimulation with adenosine analogue; increased by hypoxia; cited from earlier work
[5] = test system: prostate cancer cell lines; conditions: A2b receptor antagonist; cited from earlier work
melanoma animal models = conditions: cited from earlier work
colon cancer cell lines = conditions: A2b receptor antagonist; cited from earlier work

COCCn1c(=O)n(CCc2ccccc2)c(=O)c2c(C)c(CN3CCCC3=O)sc21 [Example 3, 1-(2-Methoxyethyl)-5-methyl-6-[(2-oxopyrrolidin-1-yl)methyl]-3-(2-phenylethyl)thieno[2,3-d]pyrimidine-2,4(1H,3H)-dione]
IC50 [1]: 4.4 nM | IC50 [2]: 15 nM

COCCn1c(=O)n(CCc2ccccc2)c(=O)c2c(C)c(CN3CCOC3=O)sc21 [Example 20, 1-(2-Methoxyethyl)-5-methyl-6-[(2-oxo-,3-oxazolidin-3-yl)methyl]-3-(2-phenylethyl)thieno[2,3-d]pyrimidine-2,4(1H,3H)-dione]
IC50 [1]: 3.6 nM | IC50 [2]: 5 nM

CCCn1c(=O)n(C2CC2)c(=O)c2[nH]c(-c3ccc(N(CC)C(=O)c4cccnc4)nc3)nc21 [ATL801]
metastasis [3]: distinct reduction in metastasis | tumour growth [3]: slowing of tumour growth

CCNC(=O)[C@H]1O[C@@H](n2cnc3c(N)ncnc32)[C@H](O)[C@@H]1O [NECA, 5′-(N-ethylcarboxamido)adenosine]
release of ET-1 and IL-6 [4]: release of ET-1 and IL-6 | release of IL-6 (human fibroblasts): release of IL-6

COCCn1c(=O)n(CCc2ccccc2)c(=O)c2c(C)c(CN3CCN(C)C3=O)sc21 [Example 102, 1-(2-Methoxyethyl)-5-methyl-6-[(3-methyl-2-oxoimidazolidin-1-yl)methyl]-3-(2-phenylethyl)thieno[2,3-d]pyrimidine-2,4(1H,3H)-dione]
IC50 [1]: 4.5 nM | IC50 [2]: 5 nM

CCCn1c(=O)[nH]c2nc(-c3ccc(S(=O)(=O)N4CCN(c5ccc(Cl)cc5)CC4)cc3)[nH]c2c1=O [PSB603]
growth of several prostate cancer cell lines [5]: reduces the growth | tumour growth and metastasis (melanoma animal models): reduction in tumour growth and metastasis

CCCn1c(=O)c2[nH]c(-c3ccc(OCC(=O)Nc4ccc(C#N)cc4)cc3)nc2n(CCC)c1=O [MRS1754]
growth of colon cancer cell lines (colon cancer cell lines): reduced growth
